Tests used:
SK-MEL-2 = assay: NCI-60 anticancer screening (SRB); assay type: cell-based; settings: Homo sapiens; SK-MEL-2, melanoma; one dose 10 μM; read-out: Growth Inhibition Percentage (GI %)
UACC-257 = assay: NCI-60 anticancer screening (SRB); assay type: cell-based; settings: Homo sapiens; UACC-257, melanoma; one dose 10 μM; read-out: Growth Inhibition Percentage (GI %)
OVCAR-4 = assay: NCI-60 anticancer screening (SRB); assay type: cell-based; settings: Homo sapiens; OVCAR-4, ovarian cancer; one dose 10 μM; read-out: Growth Inhibition Percentage (GI %)
MDA-MB-468 = assay: NCI-60 anticancer screening (SRB); assay type: cell-based; settings: Homo sapiens; MDA-MB-468, breast cancer; one dose 10 μM; read-out: Growth Inhibition Percentage (GI %)
OVCAR-3 = assay: NCI-60 anticancer screening (SRB); assay type: cell-based; settings: Homo sapiens; OVCAR-3, ovarian cancer; one dose 10 μM; read-out: Growth Inhibition Percentage (GI %)
RPMI-8226 = assay: NCI-60 anticancer screening (SRB); assay type: cell-based; settings: Homo sapiens; RPMI-8226, leukemia; one dose 10 μM; read-out: Growth Inhibition Percentage (GI %)
NCI-H522 = assay: NCI-60 anticancer screening (SRB); assay type: cell-based; settings: Homo sapiens; NCI-H522, NSC lung cancer; one dose 10 μM; read-out: Growth Inhibition Percentage (GI %)
HOP-62 = assay: NCI-60 anticancer screening (SRB); assay type: cell-based; settings: Homo sapiens; HOP-62, NSC lung cancer; one dose 10 μM; read-out: Growth Inhibition Percentage (GI %)
NCI 60 cancer cell lines = assay: NCI-60 anticancer screening (SRB), whole panel; assay type: cell-based, human; settings: mean across the NCI-60 panel; one dose 10 μM
HCC-2998 = assay: NCI-60 anticancer screening (SRB); assay type: cell-based; settings: Homo sapiens; HCC-2998, colon cancer; one dose 10 μM; read-out: Growth Inhibition Percentage (GI %)
SF-268 = assay: NCI-60 anticancer screening (SRB); assay type: cell-based; settings: Homo sapiens; SF-268, CNS cancer; one dose 10 μM; read-out: Growth Inhibition Percentage (GI %)
ACHN = assay: NCI-60 anticancer screening (SRB); assay type: cell-based; settings: Homo sapiens, renal cancer, one dose 10 μM, read-out: Growth Inhibition Percentage (GI %)
T-47D = assay: NCI-60 anticancer screening (SRB); assay type: cell-based; settings: Homo sapiens, T47D, breast cancer, one dose 10 μM, read-out: Growth Inhibition Percentage (GI %)
A549/ATCC = assay: NCI-60 anticancer screening (SRB); assay type: cell-based; settings: Homo sapiens; A549/ATCC, NSC lung cancer; one dose 10 μM; read-out: Growth Inhibition Percentage (GI %)
LOX IMVI = assay: NCI-60 anticancer screening (SRB); assay type: cell-based; settings: Homo sapiens, melanoma, one dose 10 μM, read-out: Growth Inhibition Percentage (GI %)
HL-60(TB) = assay: NCI-60 anticancer screening (SRB); assay type: cell-based; settings: Homo sapiens, leukemia, one dose 10 μM, read-out: Growth Inhibition Percentage (GI %)
SW-620 = assay: NCI-60 anticancer screening (SRB); assay type: cell-based; settings: Homo sapiens; SW-620, colon cancer; one dose 10 μM; read-out: Growth Inhibition Percentage (GI %)
HCT-15 = assay: NCI-60 anticancer screening (SRB); assay type: cell-based; settings: Homo sapiens; HCT-15, colon cancer; one dose 10 μM; read-out: Growth Inhibition Percentage (GI %)
NCI-H322M = assay: NCI-60 anticancer screening (SRB); assay type: cell-based; settings: Homo sapiens, NSC lung cancer, one dose 10 μM, read-out: Growth Inhibition Percentage (GI %)
NCI-H226 = assay: NCI-60 anticancer screening (SRB); assay type: cell-based; settings: Homo sapiens; NCI-H226, NSC lung cancer; one dose 10 μM; read-out: Growth Inhibition Percentage (GI %)
OVCAR-5 = assay: NCI-60 anticancer screening (SRB); assay type: cell-based; settings: Homo sapiens; OVCAR-5, ovarian cancer; one dose 10 μM; read-out: Growth Inhibition Percentage (GI %)
SNB-75 = assay: NCI-60 anticancer screening (SRB); assay type: cell-based; settings: Homo sapiens; SNB-75, CNS cancer; one dose 10 μM; read-out: Growth Inhibition Percentage (GI %)
SK-OV-3 = assay: NCI-60 anticancer screening (SRB); assay type: cell-based; settings: Homo sapiens; SK-OV-3, ovarian cancer; one dose 10 μM; read-out: Growth Inhibition Percentage (GI %)
MOLT-4 = assay: NCI-60 anticancer screening (SRB); assay type: cell-based; settings: Homo sapiens; MOLT-4, leukemia; one dose 10 μM; read-out: Growth Inhibition Percentage (GI %)
KM 12 = assay: NCI-60 anticancer screening (SRB); assay type: cell-based; settings: Homo sapiens, KM12; KM 12, colon cancer; one dose 10 μM; read-out: Growth Inhibition Percentage (GI %)
SNB-19 = assay: NCI-60 anticancer screening (SRB); assay type: cell-based; settings: Homo sapiens; SNB-19, CNS cancer; one dose 10 μM; read-out: Growth Inhibition Percentage (GI %)
K-562 = assay: NCI-60 anticancer screening (SRB); assay type: cell-based; settings: Homo sapiens, K562; K-562, leukemia; one dose 10 μM; read-out: Growth Inhibition Percentage (GI %)
SK-MEL-5 = assay: NCI-60 anticancer screening (SRB); assay type: cell-based; settings: Homo sapiens; SK-MEL-5, melanoma; one dose 10 μM; read-out: Growth Inhibition Percentage (GI %)
OVCAR-8 = assay: NCI-60 anticancer screening (SRB); assay type: cell-based; settings: Homo sapiens; OVCAR-8, ovarian cancer; one dose 10 μM; read-out: Growth Inhibition Percentage (GI %)
MDA-MB-435 = assay: NCI-60 anticancer screening (SRB); assay type: cell-based; settings: Homo sapiens; MDA-MB-435, melanoma; one dose 10 μM; read-out: Growth Inhibition Percentage (GI %)
SR = assay: NCI-60 anticancer screening (SRB); assay type: cell-based; settings: Homo sapiens, leukemia, one dose 10 μM, read-out: Growth Inhibition Percentage (GI %)
RXF 393 = assay: NCI-60 anticancer screening (SRB); assay type: cell-based; settings: Homo sapiens; RXF 393, renal cancer; one dose 10 μM; read-out: Growth Inhibition Percentage (GI %)

Q: `CCOC(=O)C1=C(N)N(c2ccc(Cl)cc2)C2=C(C(=O)CC(C)(C)C2)C1c1ccc(Cl)cc1Cl` (racemic) [10d, (±)-Ethyl 2-amino-1–(4-chorophenyl)-4–(2,4-dichlorophenyl)-7,7-dimethyl-5-oxo-1-phenyl-1,4,5,6,7,8-hexahydroquinoline-3-carboxylate] was tested. Which inhibition at 10 µM (SK-MEL-2) did it give?
A: 37%

Q: And the inhibition at 10 µM (UACC-257)?
A: 43%

Q: And the inhibition at 10 µM (OVCAR-4)?
A: 56%

Q: What about the inhibition at 10 µM (MDA-MB-468) of the same compound?
A: 82%

Q: What about the inhibition at 10 µM (OVCAR-3) of the same compound?
A: 49%

Q: What about the inhibition at 10 µM (RPMI-8226) of the same compound?
A: 85%

Q: What about the inhibition at 10 µM (NCI-H522) of the same compound?
A: 51%

Q: What about the inhibition at 10 µM (HOP-62) of the same compound?
A: 46%

Q: And the GI % mean (NCI 60 cancer cell lines)?
A: 48%

Q: What about the inhibition at 10 µM (HCC-2998) of the same compound?
A: 23%

Q: And the inhibition at 10 µM (SF-268)?
A: 27%

Q: And the inhibition at 10 µM (ACHN)?
A: 50%

Q: What about the inhibition at 10 µM (T-47D) of the same compound?
A: 74%

Q: What about the inhibition at 10 µM (A549/ATCC) of the same compound?
A: 48%

Q: What about the inhibition at 10 µM (LOX IMVI) of the same compound?
A: < 10%

Q: What about the inhibition at 10 µM (HL-60(TB)) of the same compound?
A: 79%

Q: And the inhibition at 10 µM (SW-620)?
A: < 10%

Q: And the inhibition at 10 µM (HCT-15)?
A: 65%

Q: And the inhibition at 10 µM (NCI-H322M)?
A: 29%

Q: What about the inhibition at 10 µM (NCI-H226) of the same compound?
A: 62%

Q: What about the inhibition at 10 µM (OVCAR-5) of the same compound?
A: 17%

Q: What about the inhibition at 10 µM (SNB-75) of the same compound?
A: 11%

Q: And the inhibition at 10 µM (SK-OV-3)?
A: 46%

Q: What about the inhibition at 10 µM (MOLT-4) of the same compound?
A: 71%

Q: What about the inhibition at 10 µM (KM 12) of the same compound?
A: 54%

Q: What about the inhibition at 10 µM (SNB-19) of the same compound?
A: 46%

Q: What about the inhibition at 10 µM (K-562) of the same compound?
A: 79%

Q: What about the inhibition at 10 µM (SK-MEL-5) of the same compound?
A: 51%

Q: And the inhibition at 10 µM (OVCAR-8)?
A: 29%

Q: And the inhibition at 10 µM (MDA-MB-435)?
A: 42%

Q: What about the inhibition at 10 µM (SR) of the same compound?
A: 75%

Q: And the inhibition at 10 µM (RXF 393)?
A: 38%

From PMC10408569, “Recruitment of hexahydroquinoline as anticancer scaffold targeting inhibition of wild and mutants EGFR (EGFR^WT, EGFR^T790M, and EGFR^L858R)” (Journal of Enzyme Inhibition and Medicinal Chemistry, 2023)
